Measured values as given in PubChem BioAssay (NCI).
Several values for one entry are separate records, joined by “and”; a condition that tells them apart may be missing. Equal values may be shown once.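 Test compounds were applied to cells in 96-well plates for 48 hours at 5 doses. Here, GI50 denotes the concentration required for 50% inhibition of growth. TGI: concentration producing complete growth inhibition.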

What was measured:
Assay in all cases: NCI anticancer screen, dose series, 48 h
A498 renal = test system: A498 renal
CCRF-CEM leukemia = test system: CCRF-CEM leukemia
HCT-15 colon = test system: HCT-15 colon
HOP-62 NSCLC = test system: HOP-62 NSCLC
KM12 colon = test system: KM12 colon
MALME-3M melanoma = test system: MALME-3M melanoma
SNB-19 CNS = test system: SNB-19 CNS
SW-620 colon = test system: SW-620 colon
T-47D breast = test system: T-47D breast
U251 CNS = test system: U251 CNS

Compound	GI50 (A498 renal)	TGI (A498 renal)	GI50 (CCRF-CEM leukemia)	TGI (CCRF-CEM leukemia)	GI50 (HCT-15 colon)	TGI (HCT-15 colon) [µM]	GI50 (HOP-62 NSCLC)	TGI (HOP-62 NSCLC)	GI50 (KM12 colon)	TGI (KM12 colon)	GI50 (MALME-3M melanoma)	TGI (MALME-3M melanoma)	GI50 (SNB-19 CNS)	TGI (SNB-19 CNS) [µM]	GI50 (SW-620 colon)	TGI (SW-620 colon)	GI50 (T-47D breast)	TGI (T-47D breast) [µM]	GI50 (U251 CNS)	TGI (U251 CNS)
CC(C)OC(=O)OCOP(=O)(OCOC(=O)OC(C)C)C1CCCN(O)C1=O (stereo not given)	0.0732 µM	0.867 µM	0.446 µM	> 100 µM	1.85 µM	> 100	2.12 µM	> 100 µM	0.879 µM	> 100 µM	0.856 µM	> 100 µM	1.21 µM	> 100	1.37 µM	> 100 µM	1.98 µM	> 100	1.76 µM	> 100 µM
CC(C)c1c(C(=O)Nc2ccccc2)c(-c2ccccc2)c(-c2ccc(F)cc2)n1CC[C@@H](O)C[C@@H](O)CC(=O)O	0.516 µM	4.52 µM	21.4 µM	> 100 µM	7.69 µM	> 100	36 µM	> 100 µM	40.2 µM	> 100 µM	52.8 µM	> 100 µM	10.5 µM	> 100	22.2 µM	> 100 µM	32.1 µM	> 100	4.48 µM	> 100 µM
CNC(=S)N/N=C/CSC/C=N/NC(=S)NC	> 100 µM	> 100 µM	24.7 µM	> 100 µM	34.5 µM	> 100	> 100 µM	> 100 µM	> 100 µM	> 100 µM	> 100 µM	> 100 µM	> 100 µM	> 100	41.1 µM	> 100 µM	0.667 µM	> 100	> 100 µM	> 100 µM
COc1cc(-c2nn(-c3cccc(NC(=O)NCCNC(=O)c4ccccc4)c3)cc2-c2ccncc2)ccc1Cl	4.72 µM	> 100 µM	1.41 µM	> 100 µM	1.97 µM	> 100	3.95 µM	> 100 µM	2.56 µM	40.2 µM	1.97 µM	6.11 µM	4.83 µM	> 100	0.824 µM	> 100 µM	1.25 µM	8.79	2.62 µM	> 100 µM
Cc1cc(C)c(CNC(=O)c2cc(Cl)c3c(c2C)O[C@@](C)(C2CCC(N(C)C)CC2)O3)c(=O)[nH]1 (stereo not given in full)	27.8 µM	> 100 µM	49.9 µM	> 100 µM	> 100 µM	> 100	> 100 µM	> 100 µM	> 100 µM	> 100 µM	45.3 µM	> 100 µM	> 100 µM	> 100	> 100 µM	> 100 µM	> 100 µM	> 100	68 µM	> 100 µM
c1c[nH]c(CN2CCN(Cc3ncc[nH]3)CC2)n1	–	> 100 µM	–	> 100 µM	–	> 100	–	> 100 µM	–	> 100 µM	–	> 100 µM	–	> 100	–	> 100 µM	–	> 100	–	> 100 µM
COc1cc(C(=O)N[C@@H]2CCCN(C)C2)ccc1Nc1ncc2c(n1)N(C1CCCC1)CC(C)(C)C(=O)N2C	0.0715 µM	0.774 µM	0.0349 µM	16.5 µM	0.38 µM	14	0.0641 µM	10.2 µM	0.0343 µM	18.3 µM	2.03 µM	10.6 µM	0.23 µM	20.4	0.0347 µM	16.7 µM	1.12 µM	17.8	0.0465 µM	5.48 µM
COc1cccc(-c2cc(-c3ccc(Nc4nc(Nc5ccc(Cl)cc5)nc(Nc5ccc(Cl)cc5)n4)cc3)nc(N)c2C#N)c1	4.7 µM	29.4 µM	1.91 µM	11.5 µM	2.46 µM	> 24.2	21.1 µM	44.6 µM	2.35 µM	11.1 µM	1.69 µM	3.45 µM	10.3 µM	> 39.3	2.41 µM	5.64 µM	1.34 µM	3.67	3.76 µM	> 37.5 µM
Nc1nc(N)c2nc(CNc3ccc(C(=O)NC(CCC(=O)O)C(=O)O)cc3)cnc2n1 (stereo not given)	0.062 µM and 0.0488 µM	> 100 µM	< 0.01 µM	> 100 µM	0.0422 µM and < 0.01 µM	> 100	0.0408 µM and < 0.01 µM	> 100 µM	< 0.01 µM	> 100 µM	0.921 µM	> 100 µM	0.0634 µM and 0.0656 µM	> 100	< 0.01 µM	> 100 µM	0.316 µM and 1.37 µM	> 100	0.0468 µM and < 0.0107 µM	> 100 µM
O=C1Nc2ccc(I)cc2/C1=C/c1cc(Br)c(O)c(Br)c1	> 16.3 µM and 20.3 µM	> 25 µM and 41.9 µM	> 18.5 µM and 6.24 µM	> 25 µM and 51.3 µM	> 16 µM and 17.2 µM	> 65.8	> 25 µM and 21.9 µM	> 25 µM and 46.9 µM	> 15.9 µM and 12 µM	> 25 µM and 28.7 µM	5.9 µM and 4.62 µM	22.2 µM and > 64.5 µM	> 21.6 µM and 31.1 µM	> 94.3	24.8 µM and 22 µM	> 25 µM and 51.1 µM	> 18.5 µM and 15.4 µM	> 82.8	> 24.1 µM and 15.1 µM	> 25 µM and 36.3 µM
CCCCCCCCCCCCNC(=O)N[C@H](C(=O)N[C@H]1/C=C/OCCNC(=O)/C=C/[C@H](C(C)C)NC1=O)C(C)C	7.81 µM	57 µM	2.16 µM	> 100 µM	> 66.3 µM	> 100	8.5 µM	34 µM	4.72 µM	30 µM	39.3 µM	> 100 µM	4.3 µM	> 100	–	–	3.14 µM	> 100	2.15 µM	> 55.2 µM
Fc1cnccc1-c1nc2ccc3[nH]ncc3c2c2c1CCCC2	0.7 µM	2.96 µM	1.84 µM	> 100 µM	0.844 µM	> 100	0.909 µM	94.2 µM	0.605 µM	> 100 µM	2.76 µM	9.06 µM	2.89 µM	> 100	–	–	1.51 µM	9.01	1.96 µM	> 100 µM
CC(=O)O[C@@H]1[C@H]2O[C@H]2[C@H]2O[C@@]2(COC(=O)c2ccccc2)[C@H]1OC(C)=O	–	> 100 µM	–	> 100 µM	–	> 100	–	–	–	> 100 µM	–	> 100 µM	–	> 100	–	> 100 µM	–	> 100	–	> 100 µM
